{"source": "patent US20240398771A1", "about": "“TREATMENT OF SCLERODERMA AND RAYNAUD'S SYNDROME” (Aisa Pharma, Inc., priority 2023, published 2024)", "test_system": "participants with SSc-RP", "assay": "Average duration of weekly RP attacks, all attacks (minutes)", "type": "in vivo, human", "description": "The relevant metrics measured by this tool daily are: • Study medication • SSc-RP symptoms (Reporting an attack including duration of attack) • Severity of the attack considering all symptoms of the attack e.g. tingling, numbness, pain, color changes (VAS 0-10 cm scale) • Participant's location at the time of the attack (inside home/outside home) • Selecting symptoms experienced during the attack (tingling, numbness, pain, color changes, other) • Pain rating during the attack (11-point Likert scale) • The RCS based on how much difficulty participants had with Raynaud's today, how many attacks the participant had, and how long they lasted. Participants will also be asked to consider how much pain, numbness, or other symptoms the Raynaud's caused in fingers (including painful sores), and how much the Raynaud's alone affected the use of hands today (VAS 0-10 cm scale).\nThe absolute change in average duration of weekly RP attacks from baseline to the end of each dosing period was and will be a secondary outcome variable. The sponsor-developed participant-informed diary was and will be used to record data. Average duration of weekly RP attacks is defined as the total duration of RP attacks divided by total number of RP attacks within the last 7 days of each dosing period. Total duration of RP attacks during the last 7 days of screening period divided by the total number of RP attacks will be used as baseline for the analysis of all periods. The variable will be calculated similar to frequency data as before.", "key": {"[1]": {"settings": "Excluding Outliers, ITT Population - Part A (Table B-6), last 7 days of dosing period, listed as Cilnidipine 10 mg"}, "[2]": {"settings": "Excluding Outliers, ITT Population - Part A (Table B-6), last 7 days of dosing period, listed as Cilnidipine 20 mg"}, "[3]": {"settings": "Excluding Outliers, ITT Population - Part A (Table B-6), last 7 days of dosing period, listed as Pooled Cilnidipine"}, "[4]": {"settings": "Excluding Outliers, ITT Population - Part A (Table B-6), last 7 days of screening period, listed as Cilnidipine 10 mg"}, "[5]": {"settings": "Excluding Outliers, ITT Population - Part A (Table B-6), last 7 days of screening period, listed as Cilnidipine 20 mg"}, "[6]": {"settings": "Excluding Outliers, ITT Population - Part A (Table B-6), last 7 days of screening period, listed as Pooled Cilnidipine"}}}
{"smiles": "COCCOC(=O)C1=C(C)NC(C)=C(C(=O)OC/C=C/c2ccccc2)C1c1cccc([N+](=O)[O-])c1", "note": "(stereo not shown) [Cilnidipine, 1,4-dihydro-2,6-dimethyl,4-(3-nitrophenyl)-3,5-pyridinedicarboxylic acid 2-methoxyethyl (2 E)-3-phenyl-2-propenyl ester]", "values": [{"measurement": "Average Duration of weekly RP attacks (All Attacks), Max", "setting": "[1]", "value": "31.5, 31.5 minutes"}, {"measurement": "Average Duration of weekly RP attacks (All Attacks), Min", "setting": "[1]", "value": "31.5, 31.5 minutes"}, {"measurement": "Average duration of weekly RP attacks (All Attacks), Change from Baseline, Max", "setting": "[1]", "value": "−8.5, −8.5 minutes"}, {"measurement": "Average duration of weekly RP attacks (All Attacks), Change from Baseline, Min", "setting": "[1]", "value": "−8.5, −8.5 minutes"}, {"measurement": "Average duration of weekly RP attacks (All Attacks), Change from Baseline, Q1", "setting": "[1]", "value": "−8.48, −8.48 minutes"}, {"measurement": "Average duration of weekly RP attacks (All Attacks), Change from Baseline, Q3", "setting": "[1]", "value": "−8.48, −8.48 minutes"}, {"measurement": "Average duration of weekly RP attacks (All Attacks), Percent Change from Baseline, Max", "setting": "[1]", "value": "−21.2, −21.2%"}, {"measurement": "Average Duration of weekly RP attacks (All Attacks)", "setting": "[2]", "value": 3.0, "unit": "min"}, {"measurement": "Average Duration of weekly RP attacks (All Attacks), Max", "setting": "[2]", "value": 30.5, "unit": "min"}, {"measurement": "Average Duration of weekly RP attacks (All Attacks), Q1", "setting": "[2]", "value": 3.00, "unit": "min"}, {"measurement": "Average duration of weekly RP attacks (All Attacks), Change from Baseline", "setting": "[2]", "value": -7.6, "unit": "min"}, {"measurement": "Average duration of weekly RP attacks (All Attacks), Change from Baseline, Max", "setting": "[2]", "value": 5.5, "unit": "min"}, {"measurement": "Average duration of weekly RP attacks (All Attacks), Change from Baseline, Q3", "setting": "[2]", "value": 5.45, "unit": "min"}, {"measurement": "Average duration of weekly RP attacks (All Attacks), Percent Change from Baseline, Max", "setting": "[2]", "value": 21.8, "unit": "%"}, {"measurement": "Average duration of weekly RP attacks (All Attacks), Percent Change from Baseline, Min", "setting": "[2]", "value": "−71.8", "unit": "%"}, {"measurement": "Average duration of weekly RP attacks (All Attacks), Percent Change from Baseline, Q1", "setting": "[2]", "value": "−71.76", "unit": "%"}, {"measurement": "Average duration of weekly RP attacks (All Attacks), Percent Change from Baseline, Q3", "setting": "[2]", "value": 21.82, "unit": "%"}, {"measurement": "Average Duration of weekly RP attacks (All Attacks)", "setting": "[3]", "value": 3.0, "unit": "min"}, {"measurement": "Average Duration of weekly RP attacks (All Attacks), Max", "setting": "[3]", "value": 31.5, "unit": "min"}, {"measurement": "Average Duration of weekly RP attacks (All Attacks), Q1", "setting": "[3]", "value": 3.00, "unit": "min"}, {"measurement": "Average duration of weekly RP attacks (All Attacks), Change from Baseline", "setting": "[3]", "value": -8.5, "unit": "min"}, {"measurement": "Average duration of weekly RP attacks (All Attacks), Change from Baseline, Max", "setting": "[3]", "value": 5.5, "unit": "min"}, {"measurement": "Average duration of weekly RP attacks (All Attacks), Change from Baseline, Q1", "setting": "[3]", "value": -8.48, "unit": "min"}, {"measurement": "Average duration of weekly RP attacks (All Attacks), Change from Baseline, Q3", "setting": "[3]", "value": 5.45, "unit": "min"}, {"measurement": "Average duration of weekly RP attacks (All Attacks), Percent Change from Baseline, Max", "setting": "[3]", "value": 21.8, "unit": "%"}, {"measurement": "Average duration of weekly RP attacks (All Attacks), Percent Change from Baseline, Min", "setting": "[3]", "value": "−71.8", "unit": "%"}, {"measurement": "Average duration of weekly RP attacks (All Attacks), Percent Change from Baseline, Q1", "setting": "[3]", "value": "−71.76", "unit": "%"}, {"measurement": "Average duration of weekly RP attacks (All Attacks), Percent Change from Baseline, Q3", "setting": "[3]", "value": 21.82, "unit": "%"}, {"measurement": "Average duration of weekly RP attacks (All Attacks), Baseline, Max", "setting": "[4]", "value": "40.0, 40.0 minutes"}, {"measurement": "Average duration of weekly RP attacks (All Attacks), Baseline, Min", "setting": "[4]", "value": "40.0, 40.0 minutes"}, {"measurement": "Average duration of weekly RP attacks (All Attacks), Baseline, Q1", "setting": "[4]", "value": "40.00, 40.00 minutes"}, {"measurement": "Average duration of weekly RP attacks (All Attacks), Baseline, Q3", "setting": "[4]", "value": "40.00, 40.00 minutes"}, {"measurement": "Average duration of weekly RP attacks (All Attacks), Baseline", "setting": "[5]", "value": 10.6, "unit": "min"}, {"measurement": "Average duration of weekly RP attacks (All Attacks), Baseline, Max", "setting": "[5]", "value": 25.0, "unit": "min"}, {"measurement": "Average duration of weekly RP attacks (All Attacks), Baseline, Q1", "setting": "[5]", "value": 10.63, "unit": "min"}, {"measurement": "Average duration of weekly RP attacks (All Attacks), Baseline, Q3", "setting": "[5]", "value": 25.00, "unit": "min"}, {"measurement": "Average duration of weekly RP attacks (All Attacks), Baseline", "setting": "[6]", "value": 10.6, "unit": "min"}, {"measurement": "Average duration of weekly RP attacks (All Attacks), Baseline, Max", "setting": "[6]", "value": 40.0, "unit": "min"}, {"measurement": "Average duration of weekly RP attacks (All Attacks), Baseline, Mean", "setting": "[6]", "value": 25.21, "unit": "min"}, {"measurement": "Average duration of weekly RP attacks (All Attacks), Baseline, Median", "setting": "[6]", "value": 25.00, "unit": "min"}, {"measurement": "Average duration of weekly RP attacks (All Attacks), Baseline, Q1", "setting": "[6]", "value": 10.63, "unit": "min"}, {"measurement": "Average duration of weekly RP attacks (All Attacks), Baseline, Q3", "setting": "[6]", "value": 40.00, "unit": "min"}, {"measurement": "Average Duration of weekly RP attacks (All Attacks), Max", "setting": "ITT Population - Part A (Table B-5), last 7 days of dosing period, listed as Cilnidipine 10 mg", "value": "31.5, 31.5 minutes"}]}
